pIC50, pKi: −log10 of the molar value.

Km, Ki and IC50 data for eight compounds are collected here from ChEMBL document CHEMBL1156686, “Xanthine oxidase-activated prodrugs of thymidine phosphorylase inhibitors” (Eur J Med Chem, 2008).

Data set [1] concerns the target T1, Xanthine dehydrogenase/oxidase (Bos taurus, UniProt P80457). The settings on record: cattle.
The target in data set [2] is T1, Xanthine dehydrogenase/oxidase. Kind of data set: Inhibition of bovine xanthine oxidase using hypoxanthine as a substrate.
Data set [3] shares this target. In words: Inhibition of bovine xanthine oxidase using xanthine as a substrate.
A short description of data set [4]: Inhibition of horse liver recombinant thymidine phosphorylase. The arrangement: species or system Equus caballus.

T1 sequence (P80457 whole entry): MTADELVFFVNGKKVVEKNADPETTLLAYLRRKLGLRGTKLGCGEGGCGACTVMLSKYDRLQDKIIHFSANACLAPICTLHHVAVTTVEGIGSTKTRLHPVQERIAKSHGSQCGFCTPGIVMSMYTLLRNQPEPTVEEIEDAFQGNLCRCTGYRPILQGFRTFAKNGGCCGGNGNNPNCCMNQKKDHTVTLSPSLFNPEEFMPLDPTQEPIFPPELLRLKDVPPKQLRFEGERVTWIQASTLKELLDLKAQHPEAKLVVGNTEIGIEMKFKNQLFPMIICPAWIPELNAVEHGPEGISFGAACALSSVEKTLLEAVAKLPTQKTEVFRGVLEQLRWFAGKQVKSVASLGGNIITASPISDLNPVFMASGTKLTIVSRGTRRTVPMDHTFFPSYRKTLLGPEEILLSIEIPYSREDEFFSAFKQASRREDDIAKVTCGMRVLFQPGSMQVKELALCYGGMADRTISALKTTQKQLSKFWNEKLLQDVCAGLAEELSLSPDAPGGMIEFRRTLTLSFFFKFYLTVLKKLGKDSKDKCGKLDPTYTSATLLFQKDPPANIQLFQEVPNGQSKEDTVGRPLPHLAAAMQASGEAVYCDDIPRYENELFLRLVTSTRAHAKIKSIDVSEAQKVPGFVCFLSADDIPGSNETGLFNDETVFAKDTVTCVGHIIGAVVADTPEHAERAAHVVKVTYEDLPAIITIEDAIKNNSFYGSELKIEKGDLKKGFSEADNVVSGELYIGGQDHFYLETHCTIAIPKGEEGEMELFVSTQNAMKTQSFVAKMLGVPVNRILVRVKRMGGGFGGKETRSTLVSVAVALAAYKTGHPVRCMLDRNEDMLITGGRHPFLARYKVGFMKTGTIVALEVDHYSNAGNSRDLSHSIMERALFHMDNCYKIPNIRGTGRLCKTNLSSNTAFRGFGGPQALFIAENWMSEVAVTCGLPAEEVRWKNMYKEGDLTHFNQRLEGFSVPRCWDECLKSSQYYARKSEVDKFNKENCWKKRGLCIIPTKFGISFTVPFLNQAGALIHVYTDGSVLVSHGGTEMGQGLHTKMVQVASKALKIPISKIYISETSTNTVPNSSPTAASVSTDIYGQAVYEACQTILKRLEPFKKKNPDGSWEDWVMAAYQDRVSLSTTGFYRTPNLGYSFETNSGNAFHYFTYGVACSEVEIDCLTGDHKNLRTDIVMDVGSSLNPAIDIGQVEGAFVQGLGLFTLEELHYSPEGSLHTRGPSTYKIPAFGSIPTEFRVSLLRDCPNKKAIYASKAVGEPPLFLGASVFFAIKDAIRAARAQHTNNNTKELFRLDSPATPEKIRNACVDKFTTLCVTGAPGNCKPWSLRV

Usually Km stands for the substrate concentration at which the rate is half of its maximum. `Nc1nc[nH]c(=O)c1Br`: in data set [1], the Michaelis constant (Km) worked out at 23.8 µM. Regarding `O=c1[nH]cnc2[nH]ccc12`, the Km in data set [1] was determined as 45.1 µM. As usually defined, the pKi is the Ki on a negative log10 scale, so that one unit is a factor of ten. A high value points to a small Ki. For `O=c1[nH]c(=O)c2cc[nH]c2[nH]1` [7-DEAZAXANTHINE], the pKi in data set [2] was 4.60; in data set [3] it was 4.15.

As for `O=c1ncc2cc[nH]c2[nH]1`, the Km in data set [1] was found to be 29.8 µM. On the same count and under the same terms, then `Nc1ncncc1Br`, with 44.4 µM; and `Nc1[nH]c(=O)ncc1Br`, with 32.5 µM; and `N=C1CCCN1Cc1nc[nH]c(=O)c1Cl`, with 64.9 µM.

Usually pIC50 stands for the IC50 on a negative log10 scale, so that one unit is a factor of ten. In the case of `Nc1[nH]c(=O)[nH]c(=O)c1Br`, the pIC50 in data set [4] is 4.52.
